The results in this text go back to publication doi:10.1101/2025.06.19.660642, “Discovery of orally bioavailable Zika and West Nile Virus antiviral compounds targeting the NS2B-NS3 protease” (bioRxiv, 2025).

By Ki is commonly meant a measure of affinity in units of concentration, obtained from inhibition or displacement. By inhibition is commonly meant the percentage by which the read-out fell short of the control.

The structures appear in SMILES notation. Where two headings read alike, the source gives them in different places. Bounds are passed on as bounds.

In one assay the target is T1, WNV NS2B-NS3 protease (West Nile virus, UniProt P06935).
T1 construct: some activity against the WNV NS2B-NS3 protease
T1 sequence (P06935 1424-1463): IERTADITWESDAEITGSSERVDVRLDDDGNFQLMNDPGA
T1 sequence (P06935 1502-1679): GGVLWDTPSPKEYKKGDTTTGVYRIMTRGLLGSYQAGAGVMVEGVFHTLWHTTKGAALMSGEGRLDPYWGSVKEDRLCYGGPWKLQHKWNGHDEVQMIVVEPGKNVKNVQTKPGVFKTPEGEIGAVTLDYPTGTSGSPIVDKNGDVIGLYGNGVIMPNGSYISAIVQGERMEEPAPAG
Briefly: WNV NS2B-NS3 protease biochemical inhibition.

In the next assay the target is T2, ZIKV NS2B-NS3 protease (Zika virus, UniProt A0A024B7W1).
T2 construct: directed at the co-expressed ZIKV NS2B-NS3 protease
T2 sequence (A0A024B7W1 1503-1680): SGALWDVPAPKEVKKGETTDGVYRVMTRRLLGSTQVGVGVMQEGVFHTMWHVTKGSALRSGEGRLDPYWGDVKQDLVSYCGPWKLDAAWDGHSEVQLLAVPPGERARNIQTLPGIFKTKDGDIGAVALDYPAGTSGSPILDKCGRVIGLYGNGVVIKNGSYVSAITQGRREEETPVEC
T2 sequence (A0A024B7W1 1425-1464): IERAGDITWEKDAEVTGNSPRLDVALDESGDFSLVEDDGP
Nature of the assay: ZIKV NS2B-NS3 protease biochemical FRET assay. The settings on record: for Ligand efficiency (LE): Ligand efficiency = pKi / heavy atom count.

Where [1] appears, read: library 1, supplement, read-out: ZIKV NS2B-NS3 Ki.
[2] abbreviates: ZIKV NS2B-NS3 Ki (uM), library 1, supplement.

`CC(C)NC(=O)[C@@H](Nc1ccc2c(c1)CN(C)C2)c1cc(Cl)cc2[nH]ncc12` [ASAP-0031156]: the figures for the Ki at WNV NS2B-NS3 protease and on ZIKV NS2B-NS3 protease (ZIKV NS2B-NS3 Ki) were 1.6 µM and 0.48 µM, respectively.
On to `NC[C@H]1C[C@@H](CNC(=O)c2cc(Cl)cc(NC(=O)OCc3ccccc3)c2)CCO1` [ASAP-0021664, NC[C@H]1C[C@@H](CNC(=O)c2cc(Cl)cc(NC(=O)OCc3ccccc3)c2)CCO1 ¦&1:2,&2:4¦], for which, at ZIKV NS2B-NS3 protease (library 1, supplement), the “ZIKV NS2B-NS3 pKi” value is recorded as under 4.05. Also, the Ki on ZIKV NS2B-NS3 protease (setting [1]) is over 89.3 µM.
As to `Cn1nc(NC(=O)c2cc(Cl)cc(NC(=O)OCc3ccccc3)c2)c2c1CNC2` [ASAP-0021036, Cn1nc(NC(=O)c2cc(Cl)cc(NC(=O)OCc3ccccc3)c2)c2c1CNC2], at ZIKV NS2B-NS3 protease (setting [2]), the Ki is over 89.3 µM.
`CC(C)N1CCc2nc(NC(=O)c3cc(Cl)cc(NC(=O)OCc4ccccc4)c3)sc2C1` [ASAP-0020812, CC(C)N1CCc2nc(NC(=O)c3cc(Cl)cc(NC(=O)OCc4ccccc4)c3)sc2C1] returned a Ki on ZIKV NS2B-NS3 protease (setting [2]) of over 89.3 µM.
On ZIKV NS2B-NS3 protease (setting [2]), `NCC12CC(NC(=O)c3cc(Cl)cc(NC(=O)OCc4ccccc4)c3)(CCO1)C2` [ASAP-0021607, NCC12CC(NC(=O)c3cc(Cl)cc(NC(=O)OCc4ccccc4)c3)(CCO1)C2] registered an inhibitory constant (Ki) of over 89.3 µM.
For the compound `O=C(Nc1cc(Cl)cc(C(=O)NC[C@@H]2CNCCC2(F)F)c1)OCc1ccccc1` [ASAP-0021511, O=C(Nc1cc(Cl)cc(C(=O)NC[C@@H]2CNCCC2(F)F)c1)OCc1ccccc1 ¦&1:13¦], the “ZIKV NS2B-NS3 pKi” value on ZIKV NS2B-NS3 protease (library 1, supplement) is recorded as under 4.05. At ZIKV NS2B-NS3 protease (setting [1]), the Ki is over 89.3 µM.
Regarding `NCc1cccc(NC(=O)c2cc(Cl)cc(NC(=O)OCc3ccccc3)c2)c1` [ASAP-0016806], the “Ligand efficiency (LE)” value on ZIKV NS2B-NS3 protease is 0.259. For the same compound, affinity at ZIKV NS2B-NS3 protease (ZIKV NS2B-NS3 Ki) was put at a Ki of 4.3 µM.
Regarding `CN(C)Cc1cc(NC(=O)c2cc(Cl)cc(NC(=O)OCc3ccccc3)c2)sn1` [ASAP-0020825, CN(C)Cc1cc(NC(=O)c2cc(Cl)cc(NC(=O)OCc3ccccc3)c2)sn1], the inhibitory constant (Ki) on ZIKV NS2B-NS3 protease (setting [2]) was over 89.3 µM.
In the case of `C[C@H](N)c1cccc(NC(=O)c2cc(Cl)cc(NC(=O)OCc3ccccc3)c2)c1` [ASAP-0021091, C[C@H](N)c1cccc(NC(=O)c2cc(Cl)cc(NC(=O)OCc3ccccc3)c2)c1], the affinity at ZIKV NS2B-NS3 protease (setting [2]), expressed as Ki, was 12.3 µM.
The same measure, in the same setting: the figure for `O=C(Nc1cc(Cl)cc(C(=O)Nc2cc3n(n2)CCNC3)c1)OCc1ccccc1` [ASAP-0020976, O=C(Nc1cc(Cl)cc(C(=O)Nc2cc3n(n2)CCNC3)c1)OCc1ccccc1] is over 89.3 µM.
On to `C[C@]1(CNC(=O)c2cc(Cl)cc(NC(=O)OCc3ccccc3)c2)CNCCOC1` [ASAP-0021641, C[C@]1(CNC(=O)c2cc(Cl)cc(NC(=O)OCc3ccccc3)c2)CNCCOC1 ¦&1:1¦], for which the “ZIKV NS2B-NS3 pKi” value on ZIKV NS2B-NS3 protease (library 1, supplement) is on record as under 4.05. Also, on ZIKV NS2B-NS3 protease (setting [1]), the Ki was over 89.3 µM.
For `NCc1ccc(CNC(=O)c2cc(Cl)cc(NC(=O)OCc3ccccc3)c2)c(F)c1` [ASAP-0021676, NCc1ccc(CNC(=O)c2cc(Cl)cc(NC(=O)OCc3ccccc3)c2)c(F)c1], the Ki at ZIKV NS2B-NS3 protease (setting [2]) worked out at 29.5 µM.
On the same count and under the same terms, next, `Cc1ccc(NC(=O)c2cc(Cl)cc(NC(=O)OCc3ccccc3)c2)cc1CN` [ASAP-0021119, Cc1ccc(NC(=O)c2cc(Cl)cc(NC(=O)OCc3ccccc3)c2)cc1CN]: 9.81 µM; `Cn1nc2c(c1NC(=O)c1cc(Cl)cc(NC(=O)OCc3ccccc3)c1)CNCC2` [ASAP-0021291, Cn1nc2c(c1NC(=O)c1cc(Cl)cc(NC(=O)OCc3ccccc3)c1)CNCC2]: 19.7 µM.
Take `NCCc1ccc(NC(=O)c2cc(Cl)cc(NC(=O)OCc3ccccc3)c2)cc1` [ASAP-0017692, NCCc1ccc(NC(=O)c2cc(Cl)cc(NC(=O)OCc3ccccc3)c2)cc1]: the Ki on ZIKV NS2B-NS3 protease (setting [2]) worked out at 9.64 µM.
As to `O=C(Nc1cc(Cl)cc(C(=O)NC[C@@H]2CC3(CNC3)CO2)c1)OCc1ccccc1` [ASAP-0021589, O=C(Nc1cc(Cl)cc(C(=O)NC[C@@H]2CC3(CNC3)CO2)c1)OCc1ccccc1 ¦&1:13¦], the “ZIKV NS2B-NS3 pKi” value on ZIKV NS2B-NS3 protease (library 1, supplement) was 4.38. Moreover, on ZIKV NS2B-NS3 protease (setting [1]), the Ki is 41.3 µM.
`O=C(Nc1cc(Cl)cc(C(=O)Nc2cccc(CC3CCNCC3)c2)c1)OCc1ccccc1` [ASAP-0017638, O=C(Nc1cc(Cl)cc(C(=O)Nc2cccc(CC3CCNCC3)c2)c1)OCc1ccccc1] yielded an inhibition constant (Ki) at ZIKV NS2B-NS3 protease (setting [2]) of over 89.3 µM.
Regarding `O=C(Nc1cc(Cl)cc(C(=O)Nc2cccc(C3CCNCC3)c2)c1)OCc1ccccc1` [ASAP-0017708, O=C(Nc1cc(Cl)cc(C(=O)Nc2cccc(C3CCNCC3)c2)c1)OCc1ccccc1], on ZIKV NS2B-NS3 protease (setting [2]), the affinity, expressed as Ki, was 11.2 µM.
The same measure, in the same setting: next, `NCc1cc(F)cc(NC(=O)c2cc(Cl)cc(NC(=O)OCc3ccccc3)c2)c1` [ASAP-0021659, NCc1cc(F)cc(NC(=O)c2cc(Cl)cc(NC(=O)OCc3ccccc3)c2)c1]: 5.26 µM; `O=C(Nc1cc(Cl)cc(C(=O)Nc2cccc3c2CNC3)c1)OCc1ccccc1` [ASAP-0021189, O=C(Nc1cc(Cl)cc(C(=O)Nc2cccc3c2CNC3)c1)OCc1ccccc1]: 67.8 µM; `NCc1ccc(O)c(NC(=O)c2cc(Cl)cc(NC(=O)OCc3ccccc3)c2)c1` [ASAP-0021142, NCc1ccc(O)c(NC(=O)c2cc(Cl)cc(NC(=O)OCc3ccccc3)c2)c1]: 16.3 µM.
Consider `O=C(Nc1cc(Cl)cc(C(=O)NC[C@H]2CNC3(CC3)CO2)c1)OCc1ccccc1` [ASAP-0021445, O=C(Nc1cc(Cl)cc(C(=O)NC[C@H]2CNC3(CC3)CO2)c1)OCc1ccccc1 ¦&1:13¦], for which the “ZIKV NS2B-NS3 pKi” value on ZIKV NS2B-NS3 protease (library 1, supplement) is given as under 4.05. Also, the Ki on ZIKV NS2B-NS3 protease (setting [1]) was over 89.3 µM.
Take `C=CC[C@@H](Nc1ccc2c(c1)CNC2)c1cc(Cl)cc2[nH]ncc12` [ASAP-0029049]: at ZIKV NS2B-NS3 protease (ZIKV NS2B-NS3 Ki), the Ki was 7.1 µM.
Consider `O=C(Nc1cc(Cl)cc(C(=O)Nc2n[nH]c3c2CNC3)c1)OCc1ccccc1` [ASAP-0021061, O=C(Nc1cc(Cl)cc(C(=O)Nc2n[nH]c3c2CNC3)c1)OCc1ccccc1], for which, on ZIKV NS2B-NS3 protease (setting [2]), the Ki was 36.1 µM.
`CN(C)Cc1ccc(C(=O)Nc2cc(Cl)cc(C(=O)NC(C)(C)CO)c2)[nH]1` [ASAP-0015373]: the inhibition at 100 µM at ZIKV NS2B-NS3 protease (read-out: inhibition in biochemical assay) is 30%.
Turning to `NCc1nccc(NC(=O)c2cc(Cl)cc(NC(=O)OCc3ccccc3)c2)n1` [ASAP-0017603, NCc1nccc(NC(=O)c2cc(Cl)cc(NC(=O)OCc3ccccc3)c2)n1], on ZIKV NS2B-NS3 protease (setting [2]), the inhibition constant (Ki) was over 89.3 µM.
On the same count and under the same terms, next, `C[C@@H](N)c1cccc(NC(=O)c2cc(Cl)cc(NC(=O)OCc3ccccc3)c2)c1` [ASAP-0021650, C[C@@H](N)c1cccc(NC(=O)c2cc(Cl)cc(NC(=O)OCc3ccccc3)c2)c1]: 20.4 µM; `NC1CCN(C(=O)c2cc(Cl)cc(NC(=O)OCc3ccccc3)c2)CC1` [ASAP-0017695, NC1CCN(C(=O)c2cc(Cl)cc(NC(=O)OCc3ccccc3)c2)CC1]: over 89.3 µM.
Same read-out and setting: the figure for `Cn1nc(CCN)nc1NC(=O)c1cc(Cl)cc(NC(=O)OCc2ccccc2)c1` [ASAP-0021177, Cn1nc(CCN)nc1NC(=O)c1cc(Cl)cc(NC(=O)OCc2ccccc2)c1] is 28.1 µM; for `Cc1c(CN)cccc1NC(=O)c1cc(Cl)cc(NC(=O)OCc2ccccc2)c1` [ASAP-0021118, Cc1c(CN)cccc1NC(=O)c1cc(Cl)cc(NC(=O)OCc2ccccc2)c1] it is 40.1 µM; for `NCCCc1ccc(F)c(NC(=O)c2cc(Cl)cc(NC(=O)OCc3ccccc3)c2)c1` [ASAP-0021296, NCCCc1ccc(F)c(NC(=O)c2cc(Cl)cc(NC(=O)OCc3ccccc3)c2)c1] it is 5.63 µM.
As for `O=C(Nc1cc(Cl)cc(C(=O)NC2([C@H]3CCNC3)CC2)c1)OCc1ccccc1` [ASAP-0021452, O=C(Nc1cc(Cl)cc(C(=O)NC2([C@H]3CCNC3)CC2)c1)OCc1ccccc1 ¦&1:13¦], at ZIKV NS2B-NS3 protease (library 1, supplement), the “ZIKV NS2B-NS3 pKi” value is recorded as under 4.05. For the same compound, the Ki on ZIKV NS2B-NS3 protease (setting [1]) was over 89.3 µM.
For `Cn1nc2c(c1NC(=O)c1cc(Cl)cc(NC(=O)OCc3ccccc3)c1)CCNC2` [ASAP-0021390, Cn1nc2c(c1NC(=O)c1cc(Cl)cc(NC(=O)OCc3ccccc3)c1)CCNC2], the Ki on ZIKV NS2B-NS3 protease (setting [2]) was over 89.3 µM.
As to `NCc1ccc(NC(=O)c2cc(Cl)cc(NC(=O)OCc3ccccc3)c2)cc1` [ASAP-0017575, NCc1ccc(NC(=O)c2cc(Cl)cc(NC(=O)OCc3ccccc3)c2)cc1], the Ki at ZIKV NS2B-NS3 protease (setting [2]) turned out to be 9.23 µM.
On ZIKV NS2B-NS3 protease (ZIKV NS2B-NS3 pKi, library 1, supplement), `NCc1ccc(F)c(NC(=O)c2cc(Cl)cc(NC(=O)OCc3ccccc3)c2)c1` [ASAP-0021403, NCc1ccc(F)c(NC(=O)c2cc(Cl)cc(NC(=O)OCc3ccccc3)c2)c1] had a Ki of 3.89 µM.
Take `NCc1cccc(NC(=O)c2cc(Cl)cc3[nH]ncc23)c1` [ASAP-0023261]: at ZIKV NS2B-NS3 protease, the “Ligand efficiency (LE)” value amounted to 0.407. At ZIKV NS2B-NS3 protease (ZIKV NS2B-NS3 Ki), this compound returned a Ki of 0.796 µM.
In the case of `NC[C@]1(F)C[C@@H](NC(=O)c2cc(Cl)cc(NC(=O)OCc3ccccc3)c2)C1` [ASAP-0021480, NC[C@]1(F)C[C@@H](NC(=O)c2cc(Cl)cc(NC(=O)OCc3ccccc3)c2)C1], the Ki at ZIKV NS2B-NS3 protease (setting [2]) was found to be 61.6 µM.
The same measure, in the same setting: the figure for `O=C(Nc1cc(Cl)cc(C(=O)Nc2ncc3n2CCNC3)c1)OCc1ccccc1` [ASAP-0020975, O=C(Nc1cc(Cl)cc(C(=O)Nc2ncc3n2CCNC3)c1)OCc1ccccc1] is over 89.3 µM; for `NC12CCC(CNC(=O)c3cc(Cl)cc(NC(=O)OCc4ccccc4)c3)(CC1)OC2` [ASAP-0021132, NC12CCC(CNC(=O)c3cc(Cl)cc(NC(=O)OCc4ccccc4)c3)(CC1)OC2] it is 29.7 µM.
On to `CC(C)(CO)NC(=O)c1cccc(Cl)c1` [Z68299550], for which the “inhibition in biochemical assay” value against ZIKV NS2B-NS3 protease (@ 100 μM) is recorded as “n.i”.
On ZIKV NS2B-NS3 protease (setting [2]), `NCCCc1ccnc(NC(=O)c2cc(Cl)cc(NC(=O)OCc3ccccc3)c2)c1` [ASAP-0021210, NCCCc1ccnc(NC(=O)c2cc(Cl)cc(NC(=O)OCc3ccccc3)c2)c1] had an inhibition constant (Ki) of 16.5 µM.
